From ChEMBL document CHEMBL4725243, “High-Throughput Screening for the Discovery of Enzyme Inhibitors” (J Med Chem, 2020)

What was measured:
[1] = Inhibition of Mycobacterium tuberculosis kanamycin resistance enzyme Eis after 5 mins in presence of AcCoA by Ellman's reagent based assay
[2] = Inhibition of Mycobacterium tuberculosis kanamycin resistance enzyme Eis preincubated for 10 mins followed by AcCoA addition and measured after 5 mins at interval of 30 sec for 20 mins by UV-Vis assay

Row | SMILES | IC50 [1] [nM] | IC50 [2] [nM]
1 | Cc1ccc(C(=O)C[n+]2ccn3cccc3c2-c2ccc(F)cc2)cc1 | 80 | –
2 | Cn1c2ccc(F)cc2c2nnc(SCCN3CCCCC3)nc21 | – | 30
3 | O=C(C[n+]1ccn2cccc2c1-c1ccccc1)c1ccccc1 | 64 | –
